Experimental data from patent US10309966B2, “Personalized therapy of inflammation-associated cancer using methods of assessing the susceptibility of a subject to the treatment with EGFR inhibitors/antagonists” (Medizinische Universität Wien, priority 2014, dated 2019).

How the values were obtained:
[1] = test system: IL-6 secretion by isolated Kupffer cells; test: IL-1β-induced IL-6 production/secretion by isolated Kupffer cells (ELISA, qRT-PCR); assay type: cell-based, mouse; conditions: for IL-1β-induced release of IL-6: EGFR-expressing Kupffer cells, 24 hours after IL-1β, inhibitor pre-incubation, FIG. 10C
Experimental: ELISA for IL-6, IL17A, IL22, IL23 (eBioscience), amphiregulin (R&D Systems), CCL2, IL-1β and IL-1α (BD Biosciences-Pharmigen) were performed following the manufacturer's instructions. MTT assay (EZ4U, Biomedica) was performed to quantify the number of viable Kupffer cells in the wells. The cytokine value was normalized to the number of viable Kupffer cells.
(§1) Hepatocytes were plated onto collagen pre-coated cell culture dishes and cultured in HepatoZyme-SFM (Gibco) supplemented with 2 mM glutamine and 1% penicillin-streptomycin (P/S). Hepatocytes were either treated with the indicated amounts of DEN for 24 hours or with 10 ng/ml TNFα (eBioscience) in the presence of cycloheximide (100 μg/ml, Sigma) for 12 hours to study the hepatoprotective role of EGFR. […] Since the number of Kupffer cells which can be recovered from one mouse is very low, it was technically impossible to perform Western Blot analysis for all indicated signaling molecules on one single batch of Kupffer cells. Usually Kupffer cells from 2 livers of the same genotype were pooled together to obtain around 20-30 μg of protein lysate.

[2] = test system: AR release by cultured Kupffer cells; test: AR (amphiregulin) release into supernatant of IL-1β stimulated Kupffer cells (ELISA); assay type: cell-based, mouse; conditions: 24 hours after IL-1β stimulation in presence of inhibitor; FIG. 10B
Experimental: (§2) Protocols for ELISA have been previously described (Natarajan, A. et al., 2007; Lichtenberger, B. M. et al., 2010; Sibilia, M. et al., 2000; Drobits, B. et al., 2012). ELISA for IL-6, IL17A, IL22, IL23 (eBioscience), amphiregulin (R&D Systems), CCL2, IL-1β and IL-1α (BD Biosciences-Pharmigen) were performed following the manufacturer's instructions. MTT assay (EZ4U, Biomedica) was performed to quantify the number of viable Kupffer cells in the wells. The cytokine value was normalized to the number of viable Kupffer cells.
Hepatocytes and Kupffer cells were isolated after liver perfusion according to previously published protocols (Smedsrod, B. et al., 1985) and either directly used for further analysis or cultured as follows. Hepatocytes were plated onto collagen pre-coated cell culture dishes and cultured in HepatoZyme-SFM (Gibco) supplemented with 2 mM glutamine and 1% penicillin-streptomycin (P/S). Hepatocytes were either treated with the indicated amounts of DEN for 24 hours or with 10 ng/ml TNFα (eBioscience) in the presence of cycloheximide (100 μg/ml, Sigma) for 12 hours to study the hepatoprotective role of EGFR. Kupffer cells were isolated and plated in RPMI 1640 with 10% FCS, 2 mM glutamine, 1% P/S for at least 24 hours followed by overnight starvation (in 0.5% FCS containing medium for cytokine induction; serum-free medium for signaling experiments). […]

EGFR = EGFR phosphorylation in isolated Kupffer cells (Western blot); assay type: cell-based, mouse; conditions: EGFR expressing Kupffer cells; IL-1β as stimulus; FIGS. 10E, 10F
Experimental: as §1

[3] = test system: IL-6 release by cultured Kupffer cells; test: EGF-induced IL-6 release by cultured Kupffer cells (ELISA); assay type: cell-based, mouse
Experimental: as §2
Hepatocytes and Kupffer cells were isolated after liver perfusion according to previously published protocols (Smedsrod, B. et al., 1985) and either directly used for further analysis or cultured as follows. Hepatocytes were plated onto collagen pre-coated cell culture dishes and cultured in HepatoZyme-SFM (Gibco) supplemented with 2 mM glutamine and 1% penicillin-streptomycin (P/S). Hepatocytes were either treated with the indicated amounts of DEN for 24 hours or with 10 ng/ml TNFα (eBioscience) in the presence of cycloheximide (100 μg/ml, Sigma) for 12 hours to study the hepatoprotective role of EGFR. Kupffer cells were isolated and plated in RPMI 1640 with 10% FCS, 2 mM glutamine, 1% P/S for at least 24 hours followed by overnight starvation (in 0.5% FCS containing medium for cytokine induction; serum-free medium for signaling experiments). Kupffer cells were stimulated with IL-1β (10 ng/ml, eBioscience), EGF (10 ng/ml, Lonza), polylC (20 μg/ml, GE Healthcare), imiquimod (12 μg/ml, Invivogen) and LPS (10 ng/ml, Invivogen) for the time period indicated. […] Since the number of Kupffer cells which can be recovered from one mouse is very low, it was technically impossible to perform Western Blot analysis for all indicated signaling molecules on one single batch of Kupffer cells. Usually Kupffer cells from 2 livers of the same genotype were pooled together to obtain around 20-30 μg of protein lysate.

[4] = test system: advanced stage HCC patients; conditions: cited from earlier work
[5] = test system: patients with advanced non-small-cell lung cancer; conditions: meta-analysis; cited from earlier work
[6] = test system: ulcerative colitis patients; conditions: EGF enemas; cited from earlier work
[7] = test system: DSS colitis in Adam17^ex/ex mice; conditions: exogenous supplementation; cited from earlier work
human HCC cells = conditions: xenograft models with human HCC cells; W. Sieghart, unpublished results; cited from earlier work

Compound: CC(C)C[C@H](CC(=O)NO)C(=O)N[C@@H](Cc1ccc2ccccc2c1)C(=O)N[C@@H](C)C(=O)NCCN [TAPI-1, reference compound]
- IL-1β-induced release of IL-6 [1]: blocked
- AR release into the culture medium [2]: did not occur

Compound: IL-1β: cytokine used to stimulate Kupffer cells
- induction of IL-6 transcripts and IL-6 protein in the culture medium ([1]; Kupffer cells expressing EGFR, IL-1β as stimulus, FIGS. 8E, 8F): induced
- induction of EGFR phosphorylation (EGFR): able to induce

Compound: C[S+]([O-])c1ccc(-c2nc(-c3ccncc3)c(-c3ccc(F)cc3)[nH]2)cc1 (centres unmarked) [SB203580, reference compound]
- IL-1β-induced release of IL-6 [1]: inhibited
- EGF-induced IL-6 production ([3]; EGFR-positive liver macrophages, 24 hours after EGF, inhibitor pre-incubation, FIG. 10D): inhibited

Compound: COc1cc2ncnc(Nc3ccc(F)c(Cl)c3)c2cc1OCCCN1CCOCC1 [gefitinib]
- clinical results in advanced stage HCC patients ([4]; advanced stage HCC): disappointing clinical results
- drug toxicity (diarrhea) [5]: increased drug toxicity in the form of diarrhea

Compound: EGF: EGFR ligand epidermal growth factor (NSDSECPLSHDGYCLHDGVCMYIEALDKYACNCVVGYIGERCQYRDLKWWELR; UniProt P01133 971-1023, looked up)
- restoration of IL-6 production in MyD88−/− Kupffer cells ([3]; EGF as stimulus, FIG. 10D): fully restore
- induction of IL-6 release ([3]; EGFR expressing Kupffer cells, EGF as stimulus, FIGS. 10C, 10D): sufficient and equally as potent as IL-1β
- disease remission [6]: induced disease remission

Compound: TGFα: EGFR ligand transforming growth factor alpha, exogenous supplementation
- rescue of colitis symptoms [7]: partial rescue

Compound: C#Cc1cccc(Nc2ncnc3cc(OCCOC)c(OCCOC)cc23)c1 [erlotinib]
- reduction of HCC burden (human HCC cells): ineffective
- synergistic effect of combination therapy with sorafenib (human HCC cells): did not show any synergistic effect
- effects in phase 2 trials (disease stabilization at 6 months) ([4]; HCC, phase 2): moderate effects
- improvement in survival through addition of erlotinib ([4]; SEARCH trial, phase III, advanced stage HCC-patients): unable to show any improvement in survival
- drug toxicity (diarrhea) [5]: increased drug toxicity in the form of diarrhea
